This note sets out measurements from patent publication US20180022734A1 (Sound Biopharmaceuticals Ltd., priority 2015, published 2018).

In data set [1] the test system is A549 human non-small cell lung cancer cell line. Put plainly: 72-hour (long term) cell killing effects. The conditions noted are these: CCK8. It is filed as cell-based. How it is done:
Cell lines and Culture: Cell line A549 was cultured in DMEM medium (Gibco, Life Technologies, China). 10% HI fetal bovine serum was purchased from Gibco, Life Technologies, USA and 1% penicillin/streptomycin was obtained from Hyclone.
Approx. 2,000 cells in 50 μL complete medium were plated on each well of a 96-well plate and incubated at 37° C., 5% CO2 overnight. Drugs at concentrations of 0.02 μM to 10 μM were dissolved in 0.1% DMSO, followed by addition into each well. After incubation for 72 hours, 10 μL CCK8 (Dojindo) was added into each well, followed by incubation at 37° C. for another 4 hours. The OD values were obtained by TECAN Microplate Reader at 450 nm.
Processing of Compounds: For in vitro tests, compounds were directly dissolved in 10 mM DMSO and stored at −20° C.

Data set [2] deals with A549; NCI-H460; 786-O; Caki-1; HT-29; MCF-7. Put plainly: 72 hour cytotoxicity (CCK8) in different cell lines. It is filed as cell-based, human. An excerpt: A549 human non-small cell lung cancer cell line, NCI-H460 human non-small cell lung cancer cell line, 786-O human renal cell line, Caki-1 human renal cell line, HT-29 human colon cancer cell line, MDA-MB-231 human breast cancer cell line, and MCF-7 human breast cancer cell line was purchased from Chinese Academy of Science Shanghai Branch. PLC/PRF-5 human hepatoma cell line and Hepal-6 mouse hepatoma cell line were obtained from Institute of Biochemistry and Cell Biology, SIBS, CAS (SIBCB). Cell lines A549, Caki-1, HT-29, MDA-MB-231, MCF-7, PLC/PRF-5 and Hepal-6 were cultured in DMEM medium (Gibco, Life Technologies, China) and cell lines NCI-H460 and 786-O were cultured in RPMI-1640 medium (Gibco, Life Technologies, China). 10% HI fetal bovine serum was purchased from Gibco, Life Technologies, USA and 1% penicillin/streptomycin was obtained from Hyclone.
Approx. 2,000 cells in 50 μL complete medium were plated on each well of a 96-well plate and incubated at 37° C., 5% CO2 overnight. Drugs at concentrations of 0.02 to 10 μM were dissolved in 0.1% DMSO, followed by addition into each well. After incubation for 72 hours, 10 μL CCK8 (Dojindo) was added into each well, followed by incubation at 37° C. for another 4 hours. The OD values were obtained by TECAN Microplate Reader at 450 nm.
(§1) For in vitro tests, compounds were directly dissolved in 10 mM DMSO and stored at −20° C. For in vivo tests, the compounds were dissolved in DMSO and neutralized by Tween 80 (DMSO:Tween=1:1) and further neutralized by PBS (pH 7.4). The final concentrations of DMSO and Tween-80 were 5%.

The nature of data set [3]: Stability of compounds 1 and 2 in MeOH stock solution and with biomass. The data set is classed as physicochemical. From the text:
No prodrug was detected in organs except for spleen during processing. […] The prodrugs may be converted to Sunitinib or other metabolite during processing or in vivo.

A short description of data set [4]: in vivo. It is filed as in vivo. Set-up: AUCpo: unit not given beside the values. The conditions noted are these: mouse, in vivo. From the text:
Animal experiments: 24 mice in each group were divided into 8 sub-groups.

A further data set concerns 786-O cell or A549 cell. As to the kind of experiment: Cell morphology and survival rate after 4 to 8 hours incubation. It is filed as cell-based, human. The conditions noted are these: for cell survival: 786-O cell or A549 cell, incubated for 8 hours; for cell morphology: cancer cells incubated for 4 hours.
Another data set deals with cancer cell xenograft. Put plainly: Pharmacodynamic tests on mice xenograft transplantation model. It is filed as in vivo. The conditions noted are these: intraperitoneally injected 1.5, 7.5, 30 mg/kg once a day for 2 weeks. How it is done: as §1
5×10^6 cancer cells were subcutaneously injected to the right side of mouse. Drug was intraperitoneally injected at dosages of 1.5 mg/kg, 7.5 mg/kg, 30 mg/kg to the mice, once a day, for 2 weeks when average tumor size reached 75 to 150 mm^3. The size of the tumor was measured every other day. […] Compound 1 had less efficacy.
We then performed the test through oral route. 5×10^6 cancer cells were subcutaneously injected to the right side of mouse. Drug was orally administered at dosages of 5 mg/kg, 15 mg/kg, 45 mg/kg to the mice, once a day, for 2 weeks when average tumor size reached 75 to 150 mm^3. The size of the tumor was measured every other day.

A short description of data set [5]: in vivo. Also noted: AUCiv: unit not given beside the values. The conditions noted are these: mouse, in vivo. An excerpt:
Relative Exposure(RE)=AUCi sample/AUCi control
AUCi—area under curve for the i^th organ or tissue; RE>1 indicates targeting at the organ or tissue, with larger RE indicating greater targeting; RE≦1 indicates non-targeting.
RTE refers to the multiple of the percent of drug content in a tissue of sample group with respect to total drug amount in the body vs. that in a control group. Positive RTE values indicate enhanced targeting effects and the more positive the more the multiple of enhancement and the more the enhanced targeting. In contrast, negative RTE values indicate reduced targeting effects. Value 0 indicate no influence to the tissue.
0.083 h, 0.25 h, 0.5 h, 1 h, 3 h, 8 h post injection, blood was taken by eyeball removal and the mice were sacrificed by cervical dislocation. Tissues were perfused with normal saline and livers and kidneys were removed and cleaned with normal saline. The blood samples were centrifuged to obtain supernatants and stored at −20° C. 50 μL plasma sample and 50 μL internal standard (clozapine) working solution was vortexed with 300 μL MeOH and then centrifuged. 150 μL upper organic phase was obtained and mixed with 150 μL water, followed by centrifugation. 10 μL supernatant was sampled for analysis. The tissue samples were weighted and mixed homogeneously with 10 times weight of water. Since the samples were 10-time diluted, the concentration of the tissue would be 10 times the results determined. The heart tissue was 5-time diluted. 100 μL homogenate was mixed with 50 μL internal standard (clozapine) working solution and 300 μL MeOH and then centrifuged. 150 μL upper organic phase was obtained and mixed with 150 μL water, followed by centrifugation. 10 μL supernatant was sampled for analysis.

Data set [6] is described as follows: Acute toxicity test: maximum tolerance dosage (MTD) determination. The data set is classed as in vivo, BALB/c mice. How it is done: Methods: Femal BALB/c mice, 4-5 weeks old, weighted greater than 17 g, were used for the test. […] The body weights and conditions of the mice were recorded.
In contrast, the body weights of mice in compound 2 group increased 6.0% in average.
To further explore the toxicity of the compounds, blood was collected after 14-day treatment of drugs and critical biochemical index were analyzed.

In a further data set the test system is pSTAT3. As to the kind of experiment: Effects on STAT3 phosphorylation in A549 cell line. It is filed as cell-based, human. The conditions noted are these: 10 μM. The procedure: as §1
The mark [7] stands for this setting: blood after 14-day treatment, 200 mg/kg.
Where [8] appears, read: oral once a day for 14 days, 175 mg/kg.
Setting [9] is: repeated test, oral once a day, 200 mg/kg.

SMILES strings stand for the structures. Like-named read-outs stand apart in the source and are kept apart here.

As for `CCN(CC)CCNC(=O)c1c(C)[nH]c(/C=C2\C(=O)N(COC(C)=O)c3ccc(F)cc32)c1C` [Compound 10], the IC50 (in general, the midpoint of a concentration-inhibition curve) in [1] is 7.46 µM.
Molecule `CCN(CC)CCNC(=O)c1c(C)[nH]c(/C=C2\C(=O)N(COC(=O)C3CCCCC3)c3ccc(F)cc32)c1C` [Compound 9, N-[2-(diethylamino)ethyl]-5-[(5-fluoro-2-oxo-1-(cyclohexylcarboxymethyl)-2,3-indolin-3-ylmethylene)]-2,4-dimethyl-1H-pyrrolidine-3-carboxamide] returned an IC50 in [1] of 4 µM.
`CCN(CC)CCNC(=O)c1c(C)[nH]c(/C=C2\C(=O)N(COC(=O)C3CC3)c3ccc(F)cc32)c1C` [Compound 11] displayed a concentration for half-maximal inhibition (IC50) in [1] of 2.56 µM.
As to `CCN(CC)CCNC(=O)c1c(C)[nH]c(C=C2C(=O)N(CC(=O)OC(C)(C)C)c3ccc(F)cc32)c1C` [Compound 1, N-[2-(diethylamino)ethyl]-5-[(5-fluoro-2-oxo-1-(t-butylcarboxymethyl)-2,3-indolin-3-ylmethylene)]-2,4-dimethyl-1H-pyrrolidine-3-carboxamide], in data set [2] (72 hours, CCK8, FIG. 5a-f), the “IC50 values among several cell lines” value is “comparable” and the “tumor killing effects / cytotoxicity” value is recorded as “relatively strong tumor killing effects”. Also, the “stability in the event of coexisting with biomass” value in data set [3] is “easy to degrade”. In “in vivo [4]” (po), the AUCpo was found to be 946.2; the Cl worked out at 3848.9 mL/h; the Tmax (as a rule, the time from dosing to the highest level) is 30 min; the t1/2 is 2.94 h. For the same molecule, in the data set with 786-O cell or A549 cell, the cell survival entry is reported as “mass cell death”; the cell morphology entry is “changed to round and suffered from stress”. In the data set with cancer cell xenograft, the “efficacy on tumor size” value is given as “less efficacy”. Further, in the data set “in vivo [5]” (iv), the AUCiv came to 478.9; the Cl is recorded as 267.5 mL/h; the “Cmax, times than that of the control” value is given as “approx. 5 times”; the “RTE analysis: distribution proportions in organs” value is “increased distribution proportions in liver and spleen”. In “in vivo [5]” (iv), the Tmax turned out to be 4.8 min.
`CCN(CC)CCNC(=O)c1c(C)[nH]c(/C=C2\C(=O)N(COC(=O)C(C)C)c3ccc(F)cc32)c1C` [Compound 12, N-[2-(diethylamino)ethyl]-5-[(5-fluoro-2-oxo-1-(isopropylcarboxymethyl)-2,3-indolin-3-ylmethylene)]-2,4-dimethyl-1H-pyrrolidine-3-carboxamide] yielded an IC50 in [1] of 9.07 µM.
`CCOC(=O)OCN1C(=O)/C(=C\c2[nH]c(C)c(C(=O)NCCN(CC)CC)c2C)c2cc(F)ccc21` [Compound 8] had an IC50 in data set [1] of 1.11 µM.
As to `CCN(CC)CCNC(=O)c1c(C)[nH]c(/C=C2\C(=O)N(COC(=O)c3ccc(OC)cc3)c3ccc(F)cc32)c1C` [Compound 13, N-[2-(diethylamino)ethyl]-5-[(5-fluoro-2-oxo-1-(p-methoxyphenylcarboxymethyl)-2,3-indolin-3-ylmethylene)]-2,4-dimethyl-1H-pyrrolidine-3-carboxamide], half-maximal inhibition in data set [1] (IC50) required 3 µM.
With `CCN(CC)CCNC(=O)c1c(C)[nH]c(/C=C2\C(=O)Nc3ccc(F)cc32)c1C.O=C(O)C[C@H](O)C(=O)O` [Sunitinib, reference compound], in data set [2], the “tumor killing effects / cytotoxicity” value is recorded as “relatively strong tumor killing effects”. In data set [2] (72 hours, CCK8, FIG. 5a-f), the “IC50 values among several cell lines” value was “comparable”. Also, in data set [6] (setting [7]), the blood glucose entry is “decreased”; the “levels of aspartate transaminase (AST) alanine aminotransferase (ALT) and cholinesterase (CHE)” value is “significantly elevated”; the “levels of lactate dehydrogenase (LDH), creatine kinase (CK) and creatine kinase-MB (CKMB)” value is “elevated”; the “levels of urate and blood urea nitrogen” value is “increased”. Also, the “effects on the body weights” value in data set [6] (oral once a day for 14 days, 28 mg/kg and 70 mg/kg) is “little effects”. In [6] (setting [8]), the “average body weight reduce” value worked out at 17.6% and the “condition of the mice” value is “extremely weak”. The “influence on body weight” value in [6] (repeated test, oral once a day, 100 mg/kg) was “body weights did not increase”. In [6] (setting [9]), the “average body weight reduce” value is recorded as 20% and the “condition of the mice” value is recorded as “extremely weak”. Besides, the bioavailability (in general, the share of a dose that reaches the circulation, judged against a reference dose that is usually intravenous) in the data set “in vivo [4]” was determined as 15%. In the data set “in vivo [4]” (po), the AUC – broadly, concentration integrated over time – amounted to 214 ng·h/mL and the bioavailability turned out to be 15.1%. In addition, in the data set “in vivo [4]” (po, 20 mg/kg), the AUC(0-inf) (commonly total exposure, with the tail of the curve extrapolated) is 43.1 ng·h/mL; the highest level (Cmax) was 9.58 ng/mL; the Tmax was found to be 30 min; the half-life – broadly, the time needed for the level to fall by half in the phase considered – was 284 min. In the data set with 786-O cell or A549 cell, the cell survival result was “did not affect cell survival”; the cell morphology result was “remained attached, elongate, and did not exhibit abnormal morphology”. For the same molecule, the “inhibition of pSTAT3” value with pSTAT3 is on record as “strong inhibition”. In addition, in the data set “in vivo [5]” (5.14 mg/kg), the half-life is 74.4 min. In “in vivo [5]” (iv, 5.14 mg/kg), the Tmax stood at 4.8 min and the clearance (in general, a measure of how efficiently the substance is removed, as volume per time) was 4.51 mL/min. For the same molecule, in the data set “in vivo [5]” (iv, 5.14 mg/kg, AUCall), the AUC was determined as 365 ng·h/mL. Besides, the exposure (AUC) in “in vivo [5]” (iv, AUCiv) turned out to be 365 ng·h/mL.
`CCN(CC)CCNC(=O)c1c(C)[nH]c(/C=C2\C(=O)N(COC(=O)N(C)C)c3ccc(F)cc32)c1C` [Compound 6, N-[2-(diethylamino)ethyl]-5-[(5-fluoro-2-oxo-1-(N,N-dimethylaminocarboxymethyl)-2,3-indolin-3-ylmethylene)]-2,4-dimethyl-1H-pyrrolidine-3-carboxamide] yielded an IC50 in [1] of 8.46 µM.
In turn, `CCN(CC)CCNC(=O)c1c(C)[nH]c(/C=C2\C(=O)N(COC(=O)OC(C)(C)C)c3ccc(F)cc32)c1C` [Compound 7, N-[2-(diethylamino)ethyl]-5-[(5-fluoro-2-oxo-1-(t-butoxycarboxymethyl)-2,3-indolin-3-ylmethylene)]-2,4-dimethyl-1H-pyrrolidine-3-carboxamide] had an IC50 in [1] of 1.79 µM.
